The source of these data is patent US6187559A, “Phospholipase D gene” (Novartis AG, priority 1998, dated 2001).

The experiment deals with PLD (phospholipase D). The experiment can be described thus: Assay for PLD activity (release of 3H choline from radiolabeled PC). Particulars: substrate [methyl-3H] choline dipalmitoyl PC; PLDT buffer (20 mM Tris-HCl pH 7.0, 1.0 mM EDTA, 0.05% Triton X-100), 37° C. The experiment is classed as biochemical. As for the experimental part: The PLD assay measured the release of ^3 H choline from radiolabeled PC (Steed et al. (1996) Biochemistry 35:5229-5237). Product was separated from substrate by partitioning into water from a chloroform:methanol extraction. ^3 H PC substrate was prepared by drying stock (in methanol) with argon and re-dissolving into minimal volumes of methanol (2-10 μl). After dilution with a buffer of 20 mM Tris-HCl, pH 7.0, 1.0 mM EDTA and 0.05% Triton X-100 (PLDT buffer) to a 5× concentration, the substrate was sonicated for 30 sec and used immediately. The assay was performed with 1.0 μM [methyl-^3 H] choline L-a-PC dipalmitoyl phosphatidylcholine (0.1 μCi/assay) and enzyme with PLDT buffer added to a final volume of 50 μl using polypropylene tubes. Since the estimated Km is greater than 1 μM, PC is limiting in this assay. Unfortunately, the solubility constraints of the lipid substrate preclude the use of higher PC concentrations. […] The radioactivity in the aqueous phase (200 μl) was counted in either a Beckman LS 3801 (Beckman Instruments Columbia Md.) or Wallac 1450 Microbeta Plus (Wallac Inc., Gaithersburg Md.) liquid scintillation counter after the addition of scintillant. […] The material was assayed using transphosphatidylation to butanol and ethanol to verify that PLD activity is being measured. […]

Take `CCCCCCCCCCCCCCCC(=O)OC[C@H](COP(=O)([O-])OCC[N+](C)(C)C)OC(=O)CCCCCCCCCCCCCCC` [PC, dipalmitoyl phosphatidylcholine]: the “estimated Km” value is “greater than 1 μM”.
